Source: ChEMBL document CHEMBL2203120, “Contribution to investigation of antimicrobial activity of styrylquinolines” (Bioorg Med Chem, 2012)

How the values were obtained:
[1] = system: Trichophyton mentagrophytes; assay: Antimicrobial activity against Trichophyton mentagrophytes 445 after 120 hrs by broth microdilution test; format: functional; details: Trichophyton mentagrophytes, 445, 120 h
[2] = system: Lichtheimia corymbifera; assay: Antimicrobial activity against Absidia corymbifera 272 after 48 hrs by broth microdilution test; format: functional; details: Lichtheimia corymbifera, 272, 48 h
[3] = system: Aspergillus fumigatus; assay: Antimicrobial activity against Aspergillus fumigatus 231 after 48 hrs by broth microdilution test; format: functional; details: Aspergillus fumigatus, 231, 48 h
[4] = system: Trichosporon beigelii; assay: Antimicrobial activity against Trichosporon beigelii 1188 after 48 hrs by broth microdilution test; format: functional; details: Trichosporon beigelii, 1188, 48 h
[5] = system: Nakaseomyces glabratus; assay: Antimicrobial activity against Candida glabrata 20/I after 48 hrs by broth microdilution test; format: functional
[6] = system: Pichia kudriavzevii; assay: Antimicrobial activity against Candida krusei ATCC 6258 after 48 hrs by broth microdilution test; format: functional; details: ATCC 6258, 48 h
[7] = system: Candida tropicalis; assay: Antimicrobial activity against Candida tropicalis 156 after 48 hrs by broth microdilution test; format: functional; details: Candida tropicalis, 156, 48 h
[8] = Lipophilicity, log P of compound by RP-HPLC analysis; format: physicochemical
[9] = system: Staphylococcus epidermidis; assay: Antimicrobial activity against Staphylococcus epidermidis H 6966/08 after 48 hrs by broth microdilution method; format: functional; details: H 6966/08, 48 h
[10] = system: Staphylococcus epidermidis; assay: Antimicrobial activity against Staphylococcus epidermidis H 6966/08 after 24 hrs by broth microdilution method; format: functional; details: H 6966/08, 24 h
[11] = system: Staphylococcus aureus; assay: Antimicrobial activity against methicillin-resistant Staphylococcus aureus H 5996/08 after 48 hrs by broth microdilution method; format: functional; details: H 5996/08, 48 h
[12] = system: Staphylococcus aureus; assay: Antimicrobial activity against methicillin-resistant Staphylococcus aureus H 5996/08 after 24 hrs by broth microdilution method; format: functional; details: H 5996/08, 24 h
[13] = system: Staphylococcus aureus; assay: Antimicrobial activity against Staphylococcus aureus CCM 4516/08 after 48 hrs by broth microdilution method; format: functional; details: CCM 4516/08, 48 h
[14] = system: Staphylococcus aureus; assay: Antimicrobial activity against Staphylococcus aureus CCM 4516/08 after 24 hrs by broth microdilution method; format: functional; details: CCM 4516/08, 24 h
[15] = system: Candida albicans; assay: Antimicrobial activity against Candida albicans ATCC 44859 after 48 hrs by broth microdilution test; format: functional; details: ATCC 44859, 48 h
[16] = system: Trichophyton mentagrophytes; assay: Antimicrobial activity against Trichophyton mentagrophytes 445 after 72 hrs by broth microdilution test; format: functional; details: Trichophyton mentagrophytes, 445, 72 h
[17] = system: Lichtheimia corymbifera; assay: Antimicrobial activity against Absidia corymbifera 272 after 24 hrs by broth microdilution test; format: functional; details: Lichtheimia corymbifera, 272, 24 h
[18] = system: Aspergillus fumigatus; assay: Antimicrobial activity against Aspergillus fumigatus 231 after 24 hrs by broth microdilution test; format: functional; details: Aspergillus fumigatus, 231, 24 h
[19] = system: Trichosporon beigelii; assay: Antimicrobial activity against Trichosporon beigelii 1188 after 24 hrs by broth microdilution test; format: functional; details: Trichosporon beigelii, 1188, 24 h
[20] = system: Nakaseomyces glabratus; assay: Antimicrobial activity against Candida glabrata 20/I after 24 hrs by broth microdilution test; format: functional
[21] = system: Pichia kudriavzevii; assay: Antimicrobial activity against Candida krusei ATCC 6258 after 24 hrs by broth microdilution test; format: functional; details: ATCC 6258, 24 h
[22] = system: Candida tropicalis; assay: Antimicrobial activity against Candida tropicalis 156 after 24 hrs by broth microdilution test; format: functional; details: Candida tropicalis, 156, 24 h
[23] = system: Candida albicans; assay: Antimicrobial activity against Candida albicans ATCC 44859 after 24 hrs by broth microdilution test; format: functional; details: ATCC 44859, 24 h

CCOc1ccc(/C=C/c2ccc3c(Cl)cc(Cl)c(O)c3n2)cc1
125 µM: MIC50 [1] | MIC80 [4] | MIC80 [6] | MIC80 [7] | MIC90 [9] | MIC90 [10] | MIC90 [11] | MIC90 [12] | MIC90 [13] | MIC90 [14] | MIC80 [15] | MIC50 [16] | MIC80 [19] | MIC80 [21] | MIC80 [22] | MIC80 [23]
> 125 µM: MIC50 [2] | MIC50 [3] | MIC80 [5] | MIC50 [17] | MIC50 [18] | MIC80 [20]
5.67: logP [8]

CCOc1ccccc1/C=C/c1ccc2c(Cl)cc(Cl)c(O)c2n1
15.6 µM: MIC50 [2] | MIC50 [17]
3.9 µM: MIC50 [3] | MIC80 [6] | MIC90 [10] | MIC90 [12] | MIC90 [14] | MIC50 [18]
0.98 µM: MIC80 [7] | MIC80 [15] | MIC80 [20] | MIC80 [21] | MIC80 [22]
1.95 µM: MIC80 [4] | MIC80 [5]
7.81 µM: MIC90 [9] | MIC90 [11] | MIC90 [13]
1.52 µM: MIC50 [1]
1.39 µM: MIC50 [16]
5.67: logP [8]
0.49 µM: MIC80 [19] | MIC80 [23]
